According to patent US20070111251A1, “Chemical address tags” (priority 2003, published 2007):

tested on: HeLa cells; assay: Kinetic imaging of NBD-triazine probe uptake and sequestration, fitted to nested two-compartment transport model; format: cell-based; conditions: median over optimal solutions within 5% of the best fit
Description: In living cells, image data was simultaneously acquired with an automated, high-content, kinetic screening instrument equipped with an environmental chamber (see, e.g., V. C. Abraham, D. L. Taylor and J. R. Haskins, Trends in Biotechnology 22, 15 (2004); herein incorporated by reference in its entirety), as cells were incubated with the fluorescent molecules and after removal of extracellular probe. Data was analyzed off line, using an image analysis algorithm to measure the statistical pixel intensity distribution associated with fluorescence probe sequestration in the perinuclear region (see, e.g., FIG. 21; see also, e.g., G. J. Ding et al., Journal of Biological Chemistry 273, 28897 (1998); herein incorporated by reference in its entirety). Data was parametrized with a nested, two-compartment, transport model (see, e.g., W. E. Evans, J. J. Schentag and W. J. Jusko., Applied Pharmacokinetics: Principles of Therapeutic Drug Monitoring (Lippincott Williams & Wilkins, Vancouver, W.A., 1992); herein incorporated by reference in its entirety), using a statistical link function to relate the kinetic coefficient of variation (CV) of pixel intensities in the images with the concentration of probe in vesicles and cytoplasm. Optimal kinetic parameters fitting the experimental data for each probe to the system described by the two-compartment model and statistical link function were determined using the simulated annealing technique (see, e.g., M. Pincus., Oper. Res. 18, 1225 (1979); herein incorporated by reference in its entirety). The present invention is not limited to a particular mechanism. Indeed, an understanding of the mechanism is not necessary to practice the present invention.
To assess how well the model accounts for all the different kinetic traces acquired, a “PVE” (proportion of variance explained) by the model was calculated. The PVE is one minus the ratio of the sum of squared differences between observed and fitted values to the sum of squared differences between observed values and their mean. PVE values close to one indicate good fit to the nested two-compartment model. The average PVE across the probes was 0.92, with >50% of the probes yielded PVE values […]. The present invention is not limited to a particular mechanism. Indeed, an understanding of the mechanism is not necessary to practice the present invention.
Cell culture. HeLa cells were grown in RPMI+10% FCS in a 5% CO2 atmosphere at 37° C. and plated in 96-well plates at a density of 3000 cells/well 24 hours prior to the start of the experiment.
Kinetic Imaging. For influx experiments, cells on 96-well plates were switched to imaging media consisting of RPMI containing 1.0 mM Bromophenol Blue—a soluble, cell-impermeant chromophore used to suppress excitation and emission of extracellular (background) dye fluorescence-, 10 μM probe and 0.1 μM Hoescht 33258 to label the cell nuclei. Plates were then transferred to a KineticScan instrument (Cellomics, Inc., Pittsburgh, Pa.), which contains an environmentally controlled CO2/temperature/humidity chamber, and data was acquired with a 20× objective lens. Images acquisition began approximately 10 min after dye addition, using the Hoescht channel to acquire nuclear images and FITC channel to acquire the NBD image. Plate-scanning mode was used for scanning, in which the instrument builds time-stacks of images by scanning the plate multiple times, returning to the same site of the plate at every scan. For efflux experiments, dye-containing media was removed from the wells of the plate. The wells were washed twice with fresh RPMI medium, imaging media was added, and image acquisition restarted 7 min after the dye-containing media was removed. The last time points of the influx experiment served as the first time point of the efflux experiment. Plates were scanned for approximately two hours in the influx experiment and six hours for the efflux experiment, with each well imaged on average every 7 minutes. […]

SMILES	median Pap(cyto) (apparent partition coefficient between extracellular medium and cytosol)	median Pap(ves) (apparent partition coefficient between cytosol and intracellular vesicles, k(ves)in/k(ves)out)
CCCCNc1nc(NCCCCCCNc2ccc([N+](=O)[O-])c3nonc23)nc(NCc2ccc(C)cc2)n1 [Compound G1]	12.30	12.14
CC(C)CCNc1nc(NCCCCCCNc2ccc([N+](=O)[O-])c3nonc23)nc(NCc2ccccc2)n1 [Compound A8]	3.75	63.22
COc1ccc(CNc2nc(NCCCCCCNc3ccc([N+](=O)[O-])c4nonc34)nc(NCC3CCCCC3)n2)cc1 [Compound C6]	19.15	11.94
COc1ccc(CNc2nc(NCCCCCCNc3ccc([N+](=O)[O-])c4nonc34)nc(NCCC(C)C)n2)cc1 [Compound C8]	8.56	31.04
Cc1ccc(CNc2nc(NCCCCCCNc3ccc([N+](=O)[O-])c4nonc34)nc(NCC3CCCCC3)n2)cc1 [Compound G6]	35.66	10.12
Cc1ccc(CNc2nc(NCCCCCCNc3ccc([N+](=O)[O-])c4nonc34)nc(NCCc3ccccn3)n2)cc1 [Compound G9]	267.03	0.20
COc1cccc(CNc2nc(NCCCCCCNc3ccc([N+](=O)[O-])c4nonc34)nc(NC(C)C)n2)c1OC [Compound H2]	10.30	9.91
Cc1ccc(CNc2nc(NCCCCCCNc3ccc([N+](=O)[O-])c4nonc34)nc(NC(C)C)n2)cc1 [Compound G2]	211.16	0.28
O=[N+]([O-])c1ccc(NCCCCCCNc2nc(NCCc3ccccn3)nc(NCc3ccccc3)n2)c2nonc12 [Compound A9]	11.54	19.12
COc1cccc(CNc2nc(NCCCCCCNc3ccc([N+](=O)[O-])c4nonc34)nc(NCCC(C)C)n2)c1OC [Compound H8]	12.95	15.10
O=[N+]([O-])c1ccc(NCCCCCCNc2nc(NCc3ccccc3)nc(NCC3CCCCC3)n2)c2nonc12 [Compound A6]	151.26	0.30
CCCCCCCCNc1nc(NCCCCCCNc2ccc([N+](=O)[O-])c3nonc23)nc(NCc2cccc(OC)c2OC)n1 [Compound H3]	7.51	14.91
CCCCNc1nc(NCCCCCCNc2ccc([N+](=O)[O-])c3nonc23)nc(NCc2ccccc2)n1 [Compound A1]	185.83	0.52
COc1ccc(CNc2nc(NCCCCCCNc3ccc([N+](=O)[O-])c4nonc34)nc(NC3CCCCC3)n2)cc1 [Compound C7]	12.58	12.01
CC1CCCCC1Nc1nc(NCCCCCCNc2ccc([N+](=O)[O-])c3nonc23)nc(NCc2cccc(F)c2)n1 (stereo not drawn) [Compound E5]	5.98	29.55
Cc1ccc(CNc2nc(NCCCCCCNc3ccc([N+](=O)[O-])c4nonc34)nc(NC3CCCCC3C)n2)cc1 (stereo not drawn) [Compound G5]	57.45	8.94
COc1ccc(CCNc2nc(NCCCCCCNc3ccc([N+](=O)[O-])c4nonc34)nc(NCC3CCCCC3)n2)cc1 [Compound D6]	141.76	0.24
CCCCNc1nc(NCCCCCCNc2ccc([N+](=O)[O-])c3nonc23)nc(NCc2cccc(OC)c2)n1 [Compound B1]	262.28	0.31
CCCCCCCCNc1nc(NCCCCCCNc2ccc([N+](=O)[O-])c3nonc23)nc(NCc2ccccc2)n1 [Compound A3]	12.96	6.45
CCCCCCCCNc1nc(NCCCCCCNc2ccc([N+](=O)[O-])c3nonc23)nc(NCc2cccc(OC)c2)n1 [Compound B3]	3.43	31.61
COc1cccc(CNc2nc(NCCCCCCNc3ccc([N+](=O)[O-])c4nonc34)nc(NCCC(C)C)n2)c1 [Compound B8]	9.79	23.66
CC1CCC(Nc2nc(NCCCCCCNc3ccc([N+](=O)[O-])c4nonc34)nc(NCCC(c3ccccc3)c3ccccc3)n2)CC1 (stereo not drawn) [Compound F4]	1.89	43.56
CCCCCCCCNc1nc(NCCCCCCNc2ccc([N+](=O)[O-])c3nonc23)nc(NCCc2ccc(OC)cc2)n1 [Compound D3]	2.75	101.21
O=[N+]([O-])c1ccc(NCCCCCCNc2nc(NCc3cccc(F)c3)nc(NCC3CCCCC3)n2)c2nonc12 [Compound E6]	10.29	20.28
O=[N+]([O-])c1ccc(NCCCCCCNc2nc(NCCc3ccccc3)nc(NCCC(c3ccccc3)c3ccccc3)n2)c2nonc12 [Compound F10]	1.44	53.44
CCCCCCCCNc1nc(NCCCCCCNc2ccc([N+](=O)[O-])c3nonc23)nc(NCc2cccc(F)c2)n1 [Compound E3]	4.14	19.86
CCCCCCCCNc1nc(NCCCCCCNc2ccc([N+](=O)[O-])c3nonc23)nc(NCc2ccc(C)cc2)n1 [Compound G3]	0.95	43.97
COc1ccc(CCNc2nc(NCCCCCCNc3ccc([N+](=O)[O-])c4nonc34)nc(NC3CCC(C)CC3)n2)cc1 (stereo not drawn) [Compound D4]	99.03	0.22
CC(C)Nc1nc(NCCCCCCNc2ccc([N+](=O)[O-])c3nonc23)nc(NCCC(c2ccccc2)c2ccccc2)n1 [Compound F2]	79.42	0.34
CCCCCCCCNc1nc(NCCCCCCNc2ccc([N+](=O)[O-])c3nonc23)nc(NCCC(c2ccccc2)c2ccccc2)n1 [Compound F3]	21.91	9.79
